{
  "source": "patent US12134769B2",
  "about": "“MicroRNA-198 as a tumor suppressor in ovarian cancer” (Baylor College of Medicine, priority 2011, dated 2024)",
  "key": {"AsPC1 cells": {"system": "AsPC1 cells", "test": "NF-κB inhibitor assay, OCT-2 expression", "format": "cell-based, human", "conditions": "FIG. 11B"}, "MIA-MSLN cells": {"system": "MIA-MSLN cells", "test": "NF-κB inhibitor assay, expression by real-time RT-PCR and western blot", "format": "cell-based, human", "experimental": "Western blots were performed as previously described (Li et al., 2008). Membranes were probed with: anti-MSLN monoclonal antibody (1:1000) (Abcam); PBX-1 polyclonal antibody (1:1000) and Caspase 3 antibody (1:1000) (Cell Signaling); OCT-2 polyclonal antibody (1:400), and VCP polyclonal antibody (1:200) (Santa Cruz Biotechnology); or anti-β-actin, Tubulin, LaminA or GAPDH antibodies (1:10,000) (Sigma Aldrich). Secondary incubation was performed with horseradish peroxidase-linked secondary antibody (1:2,000) (anti-mouse, anti-goat or anti-rabbit) (Cell Signaling).\nDifferential expression of 95 miRNAs chosen for their potential roles in cancer, cell development, and apoptosis was analyzed by RT-PCR using the QuantiMir System from SBI System Biosciences in both MIA-V and MIA-MSLN cells. The array plate also included the U6 transcript as a normalization signal. cDNAs from different cell lines and tissue samples were mixed with SYBR® Green Mastermix (Bio-Rad Laboratories) plus the universal reverse primer. Specific primers (1 μl) were added to each well of the qPCR plate. Expression levels of each mature miRNA were evaluated using comparative threshold cycle (Ct) method as normalized to that of U6 (2—ΔCt). The expression level of miR-198 was measured in all subsequent experiments using the same method. Real-time RT PCR was performed as previously described for MSLN, ZEB1, PBX-1, and VCP (Li et al., 2008). The primer sequences used are as follows:\nMIA-MSLN and MIA-V control cells were treated with 0, 12.5 or 25 μM of the IKK inhibitor Wedelolactone (Calbiochem). The cells were collected after 72 h and protein, RNA, and miRNA extracts were prepared and assayed accordingly."}},
  "data": [
    {"smiles": "COc1cc(O)c2c(c1)oc(=O)c1c3cc(O)c(O)cc3oc21", "note": "[Wedelolactone]", "values": [
      {"measurement": "OCT-2 expression", "setting": "AsPC1 cells", "value": "OCT-2 expression is blocked"},
      {"measurement": "ZEB1 expression", "setting": "MIA-MSLN cells; MIA-MSLN cells", "value": "completely blocked ZEB1 expression"},
      {"measurement": "increase in miR-198 expression", "setting": "MIA-MSLN cells; MIA-MSLN cells, compared to untreated controls, 72 h", "value": "~17", "unit": "fold"},
      {"measurement": "OCT-2 expression", "setting": "MIA-MSLN cells; MIA-MSLN cells, mRNA and protein levels", "value": "almost complete block in OCT-2 expression"},
      {"measurement": "PBX-1 expression", "setting": "MIA-MSLN cells; Wedelolactone inhibition of NF-κB, FIG. 3F", "value": "downregulation of PBX-1 expression"}
    ]}
  ]
}
